Measurements taken from publication PMC10587126, “Molecular hybridization strategy for tuning bioactive peptide function” (Communications Biology, 2023).
No end group written: not given here.

Legend:
human erythrocytes = assay: Hemolytic activity; type: cell-based; conditions: 0.1–100 μmol L^−1 in PBS, room temperature, 1 h, absorbance 405 nm
Method: Assays against freshly collected human erythrocytes were performed following protocols described by Pedron et al.[54]. Briefly, peptide aliquots at concentrations ranging from 0.1 to 100 μmol L^−1 were incubated with a suspension of erythrocytes at room temperature for 1 h. The samples were then centrifuged, and the absorbance of the supernatant was measured at 405 nm. […] The surfactant SDS and PBS buffer were used as positive[81],[82] and negative controls, respectively. Sodium heparin was used as an anticoagulant when collecting human blood. Three biological repeats were performed. All experiments were performed in accordance with the protocol CEUA/IB #I-1345/15 approved by the Instituto Butantan.

[1] = Resistance to proteolytic degradation in fetal bovine serum; type: in vitro ADME; conditions: 25% fetal bovine serum in water, 37 °C
Method: Stability assays were performed following the protocol described by Torres et al.[67]. Briefly, a peptide solution was added to GIBCO fetal bovine serum diluted to 25% in water and kept at 37 °C. The degradation kinetics were monitored by liquid chromatography and the percentage of peptide remaining in each case was calculated by integrating the peptide peak area. These experiments were performed as three independent replicates, and aliquots were taken at 0, 0.5, 1, 2, 4, and 6 h.

[2] = Mouse body weight in the skin abscess infection model; type: in vivo
Method: (§1) The anti-infective activity of the peptides VmCT1, temporin A, VT, and TV against A. baumannii ATCC 19606 was evaluated as described by Torres et al.[7],[83] Bacteria were grown in tryptic soy broth medium to an optical density of 0.5 at 600 nm. Cells were washed twice with sterile phosphate-buffered saline (pH 7.4, 13,000 rpm for 1 min) and resuspended to a final concentration of 1 × 10^7 CFU/20 μL. To generate the skin infection, female CD-1 mice (6-weeks-old) were first anesthetized with isoflurane and their backs were shaved. Using a needle, a superficial linear abrasion was made on the shaved area of the mice to injure just the stratum corneum and the upper layer of the epidermis. An aliquot of 20 μL containing 1 × 10^7 CFU of A. baumannii was then inoculated over the wound area with a pipette tip. The next day, the infected area was treated with the peptides (i.e., VmCT1, temporin A, VT, and TV), which were administered onto the abscess at their MIC. The animals were euthanized, and the scarified skin area removed 2- and 4-days post-infection. The excised area was homogenized using a bead beater for 20 min (25 Hz) and serially diluted for CFU quantification. Eight mice were used per group (n = 8). All experiments were performed in accordance with protocol 806763 approved by the IACUC at the University of Pennsylvania.

A. baumannii ATCC 19606 = assay: Skin abscess infection mouse model, CFU quantification; type: in vivo, Acinetobacter baumannii (in female CD-1 mice); conditions: female CD-1 mice, 1 × 10^7 CFU, peptide onto the abscess at MIC
Method: as §1

[3] = LC peak area, time 0 = 100, 0.5 h, replicate 1
[4] = LC peak area, time 0 = 100, 0.5 h, replicate 2
[5] = LC peak area, time 0 = 100, 0.5 h, replicate 3
[6] = LC peak area, time 0 = 100, 1 h, replicate 1
[7] = LC peak area, time 0 = 100, 1 h, replicate 2
[8] = LC peak area, time 0 = 100, 1 h, replicate 3
[9] = LC peak area, time 0 = 100, 2 h, replicate 1
[10] = LC peak area, time 0 = 100, 2 h, replicate 2
[11] = LC peak area, time 0 = 100, 2 h, replicate 3
[12] = LC peak area, time 0 = 100, 4 h, replicate 1
[13] = LC peak area, time 0 = 100, 4 h, replicate 2
[14] = LC peak area, time 0 = 100, 4 h, replicate 3
[15] = LC peak area, time 0 = 100, 6 h, replicate 1
[16] = LC peak area, time 0 = 100, 6 h, replicate 2
[17] = LC peak area, time 0 = 100, 6 h, replicate 3
[18] = day 0 = 100, Day 1, replicate 1
[19] = day 0 = 100, Day 1, replicate 2
[20] = day 0 = 100, Day 1, replicate 3
[21] = day 0 = 100, Day 2, replicate 1
[22] = day 0 = 100, Day 2, replicate 2
[23] = day 0 = 100, Day 2, replicate 3
[24] = day 0 = 100, Day 3, replicate 1
[25] = day 0 = 100, Day 3, replicate 2
[26] = day 0 = 100, Day 3, replicate 3
[27] = day 0 = 100, Day 4, replicate 1
[28] = day 0 = 100, Day 4, replicate 2
[29] = day 0 = 100, Day 4, replicate 3

FLGSLWRKAGTVF-NH2 [VD]
Hemolytic activity (concentration of peptide needed to kill 10% of red blood cells) (human erythrocytes): no hemolytic activity was detected
Peptide remaining [1, 3]: 33.7
Peptide remaining [1, 4]: 43.8
Peptide remaining [1, 5]: 94.3
Peptide remaining [1, 6]: 66.3
Peptide remaining [1, 7]: 77.3
Peptide remaining [1, 8]: 49.4
Peptide remaining [1, 9]: 38.2
Peptide remaining [1, 10]: 88.5
Peptide remaining [1, 11]: 63.8
Peptide remaining [1, 12]: 66.4
Peptide remaining [1, 13]: 45.3
Peptide remaining [1, 14]: 44.7
Peptide remaining [1, 15]: 56.9
Peptide remaining [1, 16]: 59.8
Peptide remaining [1, 17]: 0.0

FLPLLWRVASGVF-NH2 [VT]
Hemolytic activity (concentration of peptide needed to kill 10% of red blood cells) (human erythrocytes): 0.2 µmol/L
Peptide remaining after 30 min ([1]; LC peak area vs time 0, 30 min, three replicates): totally degraded
Peptide remaining [1, 3]: 0
Peptide remaining [1, 4]: 0
Peptide remaining [1, 5]: 0
Peptide remaining [1, 7]: 0
Peptide remaining [1, 8]: 0
Peptide remaining [1, 9]: 0
Peptide remaining [1, 10]: 0
Peptide remaining [1, 11]: 0
Peptide remaining [1, 12]: 0
Peptide remaining [1, 13]: 0
Peptide remaining [1, 14]: 0
Peptide remaining [1, 15]: 0
Peptide remaining [1, 16]: 0
Peptide remaining [1, 17]: 0
remaining at 1 h ([1]; fetal bovine serum, 25% in water, LC peak area, time 0 = 100, 1 h, replicate 1, read-out: Peptide remaining): 0%
Mouse body weight, normalized to the weight at the beginning of the experiment [2, 18]: 95
Mouse body weight, normalized to the weight at the beginning of the experiment [2, 19]: 100
Mouse body weight, normalized to the weight at the beginning of the experiment [2, 20]: 100
Mouse body weight, normalized to the weight at the beginning of the experiment [2, 21]: 90
Mouse body weight, normalized to the weight at the beginning of the experiment [2, 22]: 105
Mouse body weight, normalized to the weight at the beginning of the experiment [2, 23]: 100
Mouse body weight, normalized to the weight at the beginning of the experiment [2, 24]: 90
Mouse body weight, normalized to the weight at the beginning of the experiment [2, 25]: 100
Mouse body weight, normalized to the weight at the beginning of the experiment [2, 26]: 95
Mouse body weight, normalized to the weight at the beginning of the experiment [2, 27]: 95
Mouse body weight, normalized to the weight at the beginning of the experiment [2, 28]: 100
Mouse body weight, normalized to the weight at the beginning of the experiment [2, 29]: 95

GLGALLNVIKSGL-NH2 [AV]
Hemolytic activity (concentration of peptide needed to kill 10% of red blood cells) (human erythrocytes): 100 µmol/L
Peptide remaining [1, 3]: 31.1
Peptide remaining [1, 4]: 34.0
Peptide remaining [1, 5]: 0.0
Peptide remaining [1, 6]: 27.7
Peptide remaining [1, 7]: 32.8
Peptide remaining [1, 8]: 0.0
Peptide remaining [1, 9]: 39.7
Peptide remaining [1, 10]: 49.0
Peptide remaining [1, 11]: 0.0
Peptide remaining [1, 12]: 26.2
Peptide remaining [1, 13]: 41.8
Peptide remaining [1, 14]: 0.0
Peptide remaining [1, 15]: 0.0
Peptide remaining [1, 16]: 0.0
Peptide remaining [1, 17]: 0.0

GLLKRIKTLL-NH2 [Anoplin, reference compound]
Hemolytic activity (concentration of peptide needed to kill 10% of red blood cells) (human erythrocytes): 50 µmol/L
Peptide remaining [1, 3]: 22.7
Peptide remaining [1, 4]: 28.8
Peptide remaining [1, 5]: 20.2
Peptide remaining [1, 6]: 20.4
Peptide remaining [1, 7]: 17.5
Peptide remaining [1, 8]: 19.1
Peptide remaining [1, 9]: 14.2
Peptide remaining [1, 10]: 14.0
Peptide remaining [1, 11]: 0.0
Peptide remaining [1, 12]: 0.0
Peptide remaining [1, 13]: 0.0
Peptide remaining [1, 14]: 0.0
Peptide remaining [1, 15]: 0.0
Peptide remaining [1, 16]: 0.0
Peptide remaining [1, 17]: 0.0
remaining at 0.5 h ([1]; fetal bovine serum, 25% in water, LC peak area vs time 0, 30 min, three replicates, read-out: Peptide remaining after 30 min): < 50%

SLGALINVLKSGG-NH2 [DV]
Hemolytic activity (concentration of peptide needed to kill 10% of red blood cells) (human erythrocytes): 0.1 µmol/L
Peptide remaining [1, 3]: 13.4
Peptide remaining [1, 4]: 10.6
Peptide remaining [1, 5]: 0.0
Peptide remaining [1, 6]: 0.0
Peptide remaining [1, 7]: 0.0
Peptide remaining [1, 8]: 0.0
Peptide remaining [1, 9]: 0.0
Peptide remaining [1, 10]: 0.0
Peptide remaining [1, 11]: 0.0
Peptide remaining [1, 12]: 0.0
Peptide remaining [1, 13]: 0.0
Peptide remaining [1, 14]: 0.0
Peptide remaining [1, 15]: 0.0
Peptide remaining [1, 16]: 0.0
Peptide remaining [1, 17]: 0.0

polymyxin B
A. baumannii load in the infected skin area (CFU quantification) (A. baumannii ATCC 19606; Day 2, mouse 1 of 8): 2000
A. baumannii load in the infected skin area (CFU quantification) (A. baumannii ATCC 19606; Day 2, mouse 2 of 8): 4000
A. baumannii load in the infected skin area (CFU quantification) (A. baumannii ATCC 19606; Day 2, mouse 3 of 8): 8000
A. baumannii load in the infected skin area (CFU quantification) (A. baumannii ATCC 19606; Day 2, mouse 4 of 8): 8000
A. baumannii load in the infected skin area (CFU quantification) (A. baumannii ATCC 19606; Day 2, mouse 5 of 8): 8000
A. baumannii load in the infected skin area (CFU quantification) (A. baumannii ATCC 19606; Day 2, mouse 6 of 8): 4000
A. baumannii load in the infected skin area (CFU quantification) (A. baumannii ATCC 19606; Day 2, mouse 7 of 8): 4000
A. baumannii load in the infected skin area (CFU quantification) (A. baumannii ATCC 19606; Day 2, mouse 8 of 8): 2000
A. baumannii load in the infected skin area (CFU quantification) (A. baumannii ATCC 19606; Day 4, mouse 1 of 8): 2000
A. baumannii load in the infected skin area (CFU quantification) (A. baumannii ATCC 19606; Day 4, mouse 2 of 8): 2000
A. baumannii load in the infected skin area (CFU quantification) (A. baumannii ATCC 19606; Day 4, mouse 3 of 8): 2000
A. baumannii load in the infected skin area (CFU quantification) (A. baumannii ATCC 19606; Day 4, mouse 4 of 8): 2000
A. baumannii load in the infected skin area (CFU quantification) (A. baumannii ATCC 19606; Day 4, mouse 5 of 8): 4000
A. baumannii load in the infected skin area (CFU quantification) (A. baumannii ATCC 19606; Day 4, mouse 6 of 8): 8000
A. baumannii load in the infected skin area (CFU quantification) (A. baumannii ATCC 19606; Day 4, mouse 7 of 8): 4000
A. baumannii load in the infected skin area (CFU quantification) (A. baumannii ATCC 19606; Day 4, mouse 8 of 8): 2000
Mouse body weight, normalized to the weight at the beginning of the experiment [2, 18]: 90
Mouse body weight, normalized to the weight at the beginning of the experiment [2, 19]: 95
Mouse body weight, normalized to the weight at the beginning of the experiment [2, 20]: 100
Mouse body weight, normalized to the weight at the beginning of the experiment [2, 21]: 90
Mouse body weight, normalized to the weight at the beginning of the experiment [2, 22]: 100
Mouse body weight, normalized to the weight at the beginning of the experiment [2, 23]: 100
Mouse body weight, normalized to the weight at the beginning of the experiment [2, 24]: 90
Mouse body weight, normalized to the weight at the beginning of the experiment [2, 25]: 100
Mouse body weight, normalized to the weight at the beginning of the experiment [2, 26]: 105
Mouse body weight, normalized to the weight at the beginning of the experiment [2, 27]: 95
Mouse body weight, normalized to the weight at the beginning of the experiment [2, 28]: 100
Mouse body weight, normalized to the weight at the beginning of the experiment [2, 29]: 110
